Test results from patent US12559789B2, “Method of targeting patient-specific oncogenes in extrachromosomal DNA to treat glioblastoma” (The Jackson Laboratory, priority 2017, dated 2026).
Entries after “also recorded” stand apart in the source; their conditions may differ.

Columns and labels:
Format in all cases: in vivo, mouse
HF3077 PDX = experiment: Survival of orthotopic HF3077 PDX mice treated with capmatinib (Kaplan-Meier, log-rank); details: single agent, 30 mg/kg daily oral doses, log-rank test, significance P<0.05
Source text: Orthotopic xenografts: Following IACUC guidelines in an institutionally approved animal use protocol, the inventors implanted the GBM neurosphere cell suspensions into 8-week old female nude mice (NCRNU, Taconic Farms) (i.e. immunodeficient mice) using the protocol described in Berezovsky, A. D. et al. SOX2 promotes malignancy in glioblastoma by regulating plasticity and astrocytic differentiation, Neoplasia 16, 193-206 e25 (2014), which is incorporated herein by reference. It should be noted that other “nude” or “immunodeficient” mice may be used in the present invention, as would be apparent to those skilled in the art. Thus, the present invention is not limited to the specific nude mice used in this experiment. […] Animals were monitored daily by an observer blinded to the group allocation and sacrificed upon first signs of neurological deficit or weight loss greater than 20%. […]
The inventors treated HF3077 PDXs with capmatinib (purchased from Matrix Scientific Products (Columbia, SC)) suspensions in 0.5% methylcellulose/0.1% Tween 80 were prepared every week and administered by oral gavage using a 20 g×1.5″ gavage needle (Cadence) at a dose of 30 mg/kg once a day (5 days/week) until the end of the study. […] Animals were monitored daily and sacrificed upon first signs of neurological deficit or weight loss greater than 20%. […]

HF3035 PDX = experiment: Survival of HF3035 PDX mice treated with capmatinib (Kaplan-Meier, log-rank); details: single agent, 30 mg/kg daily oral doses, log-rank test
[1] = LC-MS/MS quantitation of capmatinib in plasma and tumor tissue of HF3077 PDX (brain penetrance); details: 2 h after the last 30 mg/kg oral dose
Description: To evaluate brain penetrance of capmatinib, the inventors drew blood samples two hours after administration of the last capmatinib 30 mg/kg dose, sacrificed the animals, harvested brains, and froze 2 mm coronal sections in OCT. The inventors dissected tumor tissue from the frozen blocks. The inventors determined capmatinib concentration in homogenized tumor tissue and plasma for three treated animals and one control was quantified by LC-MS/MS. For mouse plasma sample analysis, the inventors precipitated 25 μL of each sample with 200 μL of acetonitrile. This suspension was vortexed for 30 min and centrifuged at 4k rpm for 15 min, after which 100 μL of the extract was aliquoted and mixed with 200 μL of acetonitrile/water (1/2, v/v) prior to LC-MS/MS analysis. The extracted plasma samples were analyzed on a Waters Acquity UPLC system coupled with a Waters Xevo TQ-S triple quadrupole mass spectrometer operated at positive mode. The capillary voltage was set to 0.5 kv and collision energy to 32 eV. […] The mobile phase A was 0.1% acetic acid/water and B was 0.1% acetic acid/acetonitrile. The LC gradient was 10% B (0-0.3 min), 10-95% B (0.3-1.3 min), 95% B (1.3-1.7 min), 10% B (1.7-2.0 min) and the flow rate was 0.5 mL/min. The column temperature was 40° C. The injection volume was 2 μL. […] The tissue homogenates were analyzed by using the same method as described above.

Structure (SMILES): CNC(=O)c1ccc(-c2cnc3ncc(Cc4ccc5ncccc5c4)n3n2)cc1F [capmatinib, Capmatinib]
- survival of HF3077 PDX (HF3077 PDX): significant survival benefit; also recorded: increases survival of HF3077 PDX
- survival of HF3035 PDX (HF3035 PDX): did not increase survival
- concentration of drug in the brain tumor [1]: relatively low concentration
